Results on 24 compounds are retold here after article PMC12155096 (International Journal of Molecular Sciences, 2025).

In series [1] the target is T1, human CYP1A2 (Homo sapiens, UniProt P05177).
T1 sequence (P05177 1-516): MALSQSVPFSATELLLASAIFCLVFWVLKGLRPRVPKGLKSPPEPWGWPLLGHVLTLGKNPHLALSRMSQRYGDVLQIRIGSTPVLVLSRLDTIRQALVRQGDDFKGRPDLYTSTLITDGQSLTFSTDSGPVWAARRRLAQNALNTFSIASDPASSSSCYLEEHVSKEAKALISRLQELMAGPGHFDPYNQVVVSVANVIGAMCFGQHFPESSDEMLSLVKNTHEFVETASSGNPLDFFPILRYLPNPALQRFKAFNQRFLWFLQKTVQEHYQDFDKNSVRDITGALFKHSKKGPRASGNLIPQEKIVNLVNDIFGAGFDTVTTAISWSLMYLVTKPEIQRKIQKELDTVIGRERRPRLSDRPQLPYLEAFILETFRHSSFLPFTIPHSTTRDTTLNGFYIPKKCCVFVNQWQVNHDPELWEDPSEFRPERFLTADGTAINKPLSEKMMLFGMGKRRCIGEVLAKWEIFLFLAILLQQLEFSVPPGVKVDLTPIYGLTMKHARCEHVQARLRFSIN

For series [2], the target named is T2, human CYP2C9 (Homo sapiens, UniProt P11712).
T2 sequence (P11712 whole entry): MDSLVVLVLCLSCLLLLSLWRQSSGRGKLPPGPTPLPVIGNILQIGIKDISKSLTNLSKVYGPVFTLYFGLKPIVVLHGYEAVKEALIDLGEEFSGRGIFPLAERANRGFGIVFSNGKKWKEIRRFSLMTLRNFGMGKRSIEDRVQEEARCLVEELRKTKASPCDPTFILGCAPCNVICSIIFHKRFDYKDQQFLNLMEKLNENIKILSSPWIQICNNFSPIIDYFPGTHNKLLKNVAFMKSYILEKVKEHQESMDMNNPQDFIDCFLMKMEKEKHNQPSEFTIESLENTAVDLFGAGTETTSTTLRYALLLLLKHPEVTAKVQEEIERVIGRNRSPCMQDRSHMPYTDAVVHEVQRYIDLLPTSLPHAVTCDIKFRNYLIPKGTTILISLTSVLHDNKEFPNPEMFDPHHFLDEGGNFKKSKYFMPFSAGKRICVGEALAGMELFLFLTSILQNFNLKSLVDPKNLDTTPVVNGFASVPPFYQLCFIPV
The target of series [3] is T3, human CYP2C19 (Homo sapiens, UniProt P33261).
T3 sequence (P33261 whole entry): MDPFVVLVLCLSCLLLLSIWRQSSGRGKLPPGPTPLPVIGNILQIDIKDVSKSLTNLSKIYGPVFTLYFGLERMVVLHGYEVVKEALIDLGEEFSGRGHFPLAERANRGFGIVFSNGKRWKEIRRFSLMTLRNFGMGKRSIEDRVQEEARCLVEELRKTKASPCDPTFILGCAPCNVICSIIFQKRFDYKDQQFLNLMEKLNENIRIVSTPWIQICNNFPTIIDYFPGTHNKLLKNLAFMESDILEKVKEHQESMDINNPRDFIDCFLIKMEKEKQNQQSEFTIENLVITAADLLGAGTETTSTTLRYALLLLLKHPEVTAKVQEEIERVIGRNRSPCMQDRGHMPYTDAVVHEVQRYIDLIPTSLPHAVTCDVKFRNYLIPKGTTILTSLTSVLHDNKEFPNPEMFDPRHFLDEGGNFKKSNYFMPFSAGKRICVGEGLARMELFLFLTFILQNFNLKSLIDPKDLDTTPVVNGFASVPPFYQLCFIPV
Series [4] addresses human CYP2D6 (Homo sapiens, UniProt P10635).
The target in series [5] is CYP3A4 (Homo sapiens, UniProt P08684). The series can be described thus: biochemical.
CYP3A4, sequence (P08684 whole entry): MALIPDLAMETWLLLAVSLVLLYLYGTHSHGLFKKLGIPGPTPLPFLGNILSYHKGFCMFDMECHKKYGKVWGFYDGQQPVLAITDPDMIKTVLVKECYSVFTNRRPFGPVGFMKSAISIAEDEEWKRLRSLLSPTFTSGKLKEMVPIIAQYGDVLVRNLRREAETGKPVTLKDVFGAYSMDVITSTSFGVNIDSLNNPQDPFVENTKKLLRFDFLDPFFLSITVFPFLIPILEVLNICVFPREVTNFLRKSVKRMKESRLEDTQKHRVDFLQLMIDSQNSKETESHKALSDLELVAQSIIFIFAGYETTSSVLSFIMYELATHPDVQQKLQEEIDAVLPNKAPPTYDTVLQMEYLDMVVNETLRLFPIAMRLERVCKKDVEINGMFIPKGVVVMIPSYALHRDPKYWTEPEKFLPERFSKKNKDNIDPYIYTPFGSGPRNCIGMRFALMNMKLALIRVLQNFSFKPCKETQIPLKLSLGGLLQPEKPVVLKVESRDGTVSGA
The target in series [6] is T2, human CYP2C9. The series can be described thus: biochemical.
Series [7] concerns the target T3, human CYP2C19. The experiment in a line: biochemical.
Where [8] appears, read: CYP3A4 AC50 (half-maximal activity concentration).
Setting [9] is: CYP2C9 AC50 (half-maximal activity concentration).
[10] abbreviates: CYP2C19 AC50 (half-maximal activity concentration).

Structures are written as SMILES. Where two headings read alike, the source gives them in different places.

human CYP2D6, sequence (P10635 whole entry): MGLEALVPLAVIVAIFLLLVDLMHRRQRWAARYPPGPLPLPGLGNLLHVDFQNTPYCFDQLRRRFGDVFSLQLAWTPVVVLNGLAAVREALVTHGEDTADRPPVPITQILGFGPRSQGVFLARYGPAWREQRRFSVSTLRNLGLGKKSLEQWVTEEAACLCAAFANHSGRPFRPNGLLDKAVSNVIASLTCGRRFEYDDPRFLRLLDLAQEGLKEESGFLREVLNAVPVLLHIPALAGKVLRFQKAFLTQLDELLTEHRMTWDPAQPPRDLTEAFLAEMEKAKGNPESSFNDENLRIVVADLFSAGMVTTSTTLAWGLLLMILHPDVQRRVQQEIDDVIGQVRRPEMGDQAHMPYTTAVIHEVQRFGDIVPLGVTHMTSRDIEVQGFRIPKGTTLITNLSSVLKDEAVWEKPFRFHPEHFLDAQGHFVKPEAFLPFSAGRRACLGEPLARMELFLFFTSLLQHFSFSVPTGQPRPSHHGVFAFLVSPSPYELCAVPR

For `Clc1cc(Cl)c(-c2c(Cl)c(Cl)cc(Cl)c2Cl)cc1Cl`, the “CYP1A2 AC50 (half-maximal activity concentration)” value (shortened to “CYP1A2 AC50”) in series [1] is “Inactive”. For the same compound, the “CYP2C9 AC50 (half-maximal activity concentration)” value (from here on “CYP2C9 AC50”) in series [2] was “Inactive”. Also, the “CYP2C19 AC50 (half-maximal activity concentration)” value (“CYP2C19 AC50” below) in series [3] is reported as “Inconclusive activator”. The “CYP2D6 AC50 (half-maximal activity concentration)” value (“CYP2D6 AC50” below) in series [4] is on record as “Inactive”. The AC50 in series [5] (setting [8]) was determined as 24.9 µM.

Turning to `O=C(O)c1cccc(C(=O)O)c1` [1,3-Benzenedicarboxylic acid], the “CYP1A2 AC50” value in series [1] is recorded as “Inactive”. Further, the “CYP2C9 AC50” value in series [2] was “Inconclusive activator”. The “CYP2C19 AC50” value in series [3] is on record as “Inactive”. Besides, the “CYP2D6 AC50” value in series [4] is recorded as “Inactive”. Further, the activity in series [5] (setting [8]) was half-maximal at 9.6 µM (AC50).

Regarding `CCCCC(C=O)CC` (stereo not drawn) [2-Ethylhexanal], the “CYP1A2 AC50” value in series [1] is “Inactive”. For the same compound, the “CYP2C9 AC50” value in series [2] is on record as “Inactive”. Moreover, the “CYP2C19 AC50” value in series [3] is “Inactive”. Besides, the “CYP2D6 AC50” value in series [4] is on record as “Inactive”. For the same compound, in series [5], the activity was half-maximal at 45.1 µM (AC50).

In the case of `O=C(O)c1cccc(Oc2ccccc2)c1` [3-Phenoxybenzoic acid], the “CYP1A2 AC50” value in series [1] was “Inactive”. Also, in series [2], the “CYP2C9 AC50” value was “Inactive”. For the same compound, the “CYP2C19 AC50” value in series [3] is reported as “Inactive”. The “CYP2D6 AC50” value in series [4] is reported as “Inactive”. For the same compound, the AC50 in series [5] turned out to be 35.6 µM.

In the case of `Cc1ccc(C(=O)O)cc1[N+](=O)[O-]` [4-Methyl-3-nitrobenzoic acid], the “CYP1A2 AC50” value in series [1] is “Inconclusive inhibitor”. Moreover, the “CYP2C9 AC50” value in series [2] is “Inactive”. Besides, in series [3], the “CYP2C19 AC50” value was “Inactive”. Also, the “CYP2D6 AC50” value in series [4] was “Inactive”. Moreover, in series [5] (setting [8]), the AC50 was 35.3 µM.

For the compound `COc1cc(Nc2c(C#N)cnc3cc(OCCCN4CCN(C)CC4)c(OC)cc23)c(Cl)cc1Cl` [Bosutinib], the “CYP1A2 AC50” value in series [1] is recorded as “Inactive”. In addition, in series [2], the “CYP2C9 AC50” value was “Inactive”. In series [3], the “CYP2C19 AC50” value is reported as “Inactive”. In addition, the “CYP2D6 AC50” value in series [4] is reported as “Inconclusive inhibitor”. In series [5] (setting [8]), half-maximal activity (AC50) was put at 3.48 µM.

With `O=C(CCCN1CCC(O)(c2ccc(Br)cc2)CC1)c1ccc(F)cc1` [Bromperidol], the “CYP1A2 AC50” value in series [1] was “Inactive”. Moreover, in series [2], the “CYP2C9 AC50” value is listed as “Inactive”. In addition, in series [3], the “CYP2C19 AC50” value is “Inactive”. The “CYP2D6 AC50” value in series [4] is “Inconclusive inhibitor”. In addition, the concentration at half-maximal activity (AC50) in series [5] (setting [8]) was 4.92 µM.

`O=C(NC(=O)c1c(F)cccc1F)Nc1cc(Cl)c(Oc2ncc(C(F)(F)F)cc2Cl)c(Cl)c1` [Chlorfluazuron]: the “CYP1A2 AC50” value in series [1] is “Inactive”. Besides, the “CYP2C9 AC50” value in series [2] was “Inconclusive inhibitor”. Besides, the “CYP2C19 AC50” value in series [3] is listed as “Inconclusive inhibitor”. The “CYP2D6 AC50” value in series [4] is given as “Inactive”. In addition, half-maximal activity in series [5] (setting [8]) (AC50) was put at 9.2 µM.

In the case of `CCSC(=O)N(CC)C1CCCCC1` [Cycloate], the “CYP1A2 AC50” value in series [1] is reported as “Inactive”. The “CYP2C9 AC50” value in series [2] is on record as “Inconclusive inhibitor”. Moreover, the “CYP2C19 AC50” value in series [3] is “Inconclusive inhibitor”. Further, the “CYP2D6 AC50” value in series [4] is “Inactive”. Besides, the AC50 in series [5] (setting [8]) worked out at 31.7 µM.

Regarding `CC1(C)[C@H](C(=O)O[C@H](C#N)c2cccc(Oc3ccccc3)c2)[C@@H]1C=C(Br)Br` [Deltamethrin], in series [1], the “CYP1A2 AC50” value is “Inconclusive inhibitor”. The “CYP2D6 AC50” value in series [4] is “Inconclusive inhibitor”. In addition, the AC50 in series [6] (setting [9]) came to 3.68 µM; in series [7] (setting [10]) it was 8.8 µM; in series [5] (setting [8]), 9.13 µM.

`CC(=O)OCC(=O)[C@H]1CC[C@H]2[C@@H]3CCC4=CC(=O)CC[C@]4(C)[C@H]3CC[C@]12C` [Deoxycorticosterone acetate]: the “CYP1A2 AC50” value in series [1] is “Inactive”. The “CYP2D6 AC50” value in series [4] is “Inconclusive inhibitor”. The AC50 in series [6] (setting [9]) is 5.67 µM; in series [7] (setting [10]) it was 8.43 µM; in series [5] (setting [8]), 4.07 µM.

`N#Cc1c(Cl)cccc1Cl` [Dichlobenil]: the “CYP1A2 AC50” value in series [1] is on record as “Inconclusive inhibitor”. In addition, the “CYP2C9 AC50” value in series [2] was “Inconclusive inhibitor”. For the same compound, in series [3], the “CYP2C19 AC50” value is reported as “Inactive”. In series [4], the “CYP2D6 AC50” value was “Inactive”. In series [5] (setting [8]), this compound gave an AC50 of 17.8 µM.

With `O=S(=O)(c1ccccc1)c1ccccc1` [Diphenylsulfone], the “CYP1A2 AC50” value in series [1] was “Inactive”. Further, the “CYP2D6 AC50” value in series [4] is recorded as “Inactive”. The results for the AC50 in series [6] (setting [9]), in series [7] (setting [10]) and in series [5] (setting [8]) were 7.39 µM, 41.1 µM and 28.4 µM, respectively.

For the compound `CC(=O)[C@H]1CC[C@H]2[C@@H]3C=CC4=CC(=O)CC[C@@]4(C)[C@@H]3CC[C@]12C` [Dydrogesterone], the “CYP1A2 AC50” value in series [1] is “Inactive”. Also, in series [4], the “CYP2D6 AC50” value is recorded as “Inconclusive inhibitor”. Also, the figures for the AC50 in series [6] (setting [9]), in series [7] (setting [10]) and in series [5] (setting [8]) were 32.4 µM, 5.49 µM and 4.36 µM, respectively.

In the case of `C[C@]12CC[C@@H]3c4ccc(OC(=O)N(CCCl)CCCl)cc4CC[C@H]3[C@@H]1CC[C@@H]2O` [Estramustine], in series [1], the “CYP1A2 AC50” value was “Inactive”. Further, the “CYP2C9 AC50” value in series [2] was “Inactive”. In addition, in series [3], the “CYP2C19 AC50” value was “Inactive”. The “CYP2D6 AC50” value in series [4] is reported as “Inactive”. Moreover, the activity in series [5] (setting [8]) was half-maximal at 16.9 µM (AC50).

Turning to `C#C[C@]1(OC(C)=O)CC[C@H]2[C@@H]3CCC4=C[C@@H](OC(C)=O)CC[C@@H]4[C@H]3CC[C@@]21C` [Ethynodiol diacetate], the “CYP1A2 AC50” value in series [1] is recorded as “Inactive”. In addition, the “CYP2D6 AC50” value in series [4] is on record as “Inactive”. The values for the AC50 in series [6] (setting [9]), in series [7] (setting [10]) and in series [5] (setting [8]) were 13.3 µM, 23.7 µM and 3.91 µM, respectively.

As to `COC(=O)C(C)N(C(=O)c1ccco1)c1c(C)cccc1C` (stereo not drawn) [Furalaxyl], in series [1], the “CYP1A2 AC50” value is “Inconclusive inhibitor”. Besides, the “CYP2D6 AC50” value in series [4] is reported as “Inactive”. In addition, the results for the AC50 in series [6] (setting [9]), in series [7] (setting [10]) and in series [5] (setting [8]) were 29.5 µM, 13.4 µM and 14.7 µM, respectively.

Consider `CC(=O)O[C@]1(C(C)=O)CC[C@H]2[C@@H]3C=C(C)C4=CC(=O)CC[C@]4(C)[C@H]3CC[C@@]21C` [Megestrol acetate], for which the “CYP1A2 AC50” value in series [1] was “Inactive”. Moreover, the “CYP2D6 AC50” value in series [4] was “Inactive”. The results for the concentration at half-maximal activity (AC50) in series [6] (setting [9]), in series [7] (setting [10]) and in series [5] (setting [8]) were 8.11 µM, 7.2 µM and 2.16 µM, respectively.

For the compound `C=C1C[C@H]2[C@@H]3C=C(C)C4=CC(=O)CC[C@]4(C)[C@H]3CC[C@]2(C)[C@@]1(OC(C)=O)C(C)=O` [Melengestrol acetate], in series [1], the “CYP1A2 AC50” value is listed as “Inactive”. Moreover, in series [4], the “CYP2D6 AC50” value is on record as “Inactive”. For the same compound, the AC50 in series [6] (setting [9]) was determined as 16.8 µM; in series [7] (setting [10]) it was 20.3 µM; in series [5] (setting [8]) it was 4.92 µM.

Regarding `CCCCCCCCOc1ccc(C(=O)c2ccccc2)c(O)c1` [Octabenzone], the “CYP1A2 AC50” value in series [1] is listed as “Inconclusive inhibitor”. For the same compound, the “CYP2D6 AC50” value in series [4] is listed as “Inactive”. Also, the half-maximal activity concentration (AC50) is 13.8 µM in series [6] (setting [9]), 53.3 µM in series [7] (setting [10]) and 26.2 µM in series [5] (setting [8]).

In the case of `CC(C)N(C(=O)SCC(Cl)=C(Cl)Cl)C(C)C` [Tri-allate], in series [1], the “CYP1A2 AC50” value is on record as “Inconclusive inhibitor”. Besides, in series [4], the “CYP2D6 AC50” value was “Inactive”. In addition, the AC50 in series [6] (setting [9]) is 33 µM; in series [7] (setting [10]), 10.3 µM; in series [5] (setting [8]) it was 2.47 µM.

For `O=P(c1ccccc1)(c1ccccc1)c1ccccc1` [Triphenylphosphine oxide], the “CYP1A2 AC50” value in series [1] (mean ± standard deviation from three experiments, words = activity call) is on record as “Inconclusive inhibitor”. Also, in series [4], the “CYP2D6 AC50” value was “Inactive”. For the same compound, the AC50 worked out at 6.87 ± 0.95 µM in series [6], 7.22 ± 1.65 µM in series [7] and 37 ± 2.51 µM in series [5].

With `ClC(Cl)=C(c1ccc(Cl)cc1)c1ccccc1Cl` [o,p'-DDE], in series [1], the “CYP1A2 AC50” value is “Inactive”. In addition, the “CYP2D6 AC50” value in series [4] is recorded as “Inactive”. For the same compound, the AC50 was 21 µM in series [6] (setting [9]), 6.84 µM in series [7] (setting [10]) and 22.9 µM in series [5] (setting [8]).

On to `O=C(O)C(c1ccc(Cl)cc1)c1ccc(Cl)cc1` [p,p'-DDA], for which the “CYP1A2 AC50” value in series [1] is given as “Inactive”. Besides, the “CYP2D6 AC50” value in series [4] is recorded as “Inactive”. For the same compound, the values for the AC50 in series [6] (setting [9]), in series [7] (setting [10]) and in series [5] (setting [8]) were 15.4 µM, 24.5 µM and 68.4 µM, respectively.
